The test system of this assay is C57BL/6 mouse line transplanted with B16-F10 melanoma cells. Particulars: in vivo.

Results on two compounds are retold here after patent publication US9006262B2 (priority 2011, dated 2015).

Turning to `CN(C(=O)/C=C/c1ccoc1)[C@@H]1CC[C@@]2(O)[C@H]3Cc4ccc(O)c5c4[C@@]2(CCN3CC2CC2)[C@H]1O5.Cl` [Compound 1, (−)-17-(cyclopropylmethyl)-3,14β-dihydroxy-4,5α-epoxy-6β-[N-methyl-trans-3-(3-furyl)acrylamido]morphinan hydrochloride], the “life-prolonging effect (survival rate / lifetime)” value was “statistically significant life-prolonging effect” and the “suppressive effect on body weight loss (percent change in body weight)” value is on record as “statistically significant suppressive effect on body weight loss”.
Take `CN1CC[C@]23c4c5ccc(O)c4O[C@H]2[C@@H](O)C=C[C@H]3[C@H]1C5` [morphine, Morphine]: the “life-prolonging effect (survival rate / lifetime)” value is “tendency to reduce the lifetime” and the “suppressive effect on body weight loss (percent change in body weight)” value is reported as “tendency of further body weight loss”.
